In US12564193B2, “Isoxazoline-substituted benzamide derivative, and preparation method therefor and use thereof” (SHANDONG UNITED PESTICIDE INDUSTRY CO., LTD., priority 2020, dated 2026):

What was measured:
Type in all cases: in vivo
[1] = system: Frankliniella occidentalis; assay: Insecticidal activity, spray on pre-infested radish plants: Frankliniella occidentalis; conditions: Frankliniella occidentalis, 144 h, read-out: fatality rate on Frankliniella occidentalis
How it was run: (§1)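 Three replicate units, each a small open container holding 12-15 day old radish plants carrying 30-40 insects, receive a spray of test solution and dry for 1 hour. Kill rate is counted visually after 6 days under a black mesh at 25° C, 70% RH.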

Cnaphalocrocis medinalis = assay: Insecticidal activity, spray on pre-infested radish plants: Cnaphalocrocis medinalis; conditions: 144 h, read-out: fatality rate on Cnaphalocrocis medinalis
How it was run: (§2)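 First, 30-40 pests are transferred onto 12-15 day old radish plants on a cut leaf, and the soil is covered with sand. The compound solution is then sprayed and left to dry for 1 hour before a mesh cover is fitted. Insect mortality is read visually after 6 days at 25° C and 70% relative humidity.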

Pieris rapae = assay: Insecticidal activity, spray on pre-infested radish plants: Pieris rapae; conditions: 144 h, read-out: fatality rate on Pieris rapae
How it was run: as §2

Tetranychus cinnabarinus = assay: Acaricidal activity, slide immersion of female adult mites: Tetranychus cinnabarinus; conditions: 24 h, read-out: fatality rate on Tetranychus cinnabarinus
How it was run: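 Female adult mites stuck dorsally on tape on slides (4 rows of 10), dipped 5 s in test solution, excess blotted, incubated 24 h. Mites with immobile feet on brush touch scored dead; fatality rate calculated.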

Chilo suppressalis = assay: Insecticidal activity, spray on pre-infested radish plants: Chilo suppressalis; conditions: Chilo suppressalis, 144 h, read-out: fatality rate on Chilo suppressalis
How it was run: as §1

Spodoptera litura = assay: Insecticidal activity, spray on pre-infested radish plants: Spodoptera litura; conditions: 144 h, read-out: fatality rate on Spodoptera litura
How it was run: as §1

Mythimna separata = assay: Insecticidal activity, spray on pre-infested radish plants: Mythimna separata; conditions: Mythimna separata, 144 h, read-out: fatality rate on Mythimna separata
How it was run: as §1

Plutella xylostella = assay: Insecticidal activity, spray on pre-infested radish plants: Plutella xylostella; conditions: Plutella xylostella, 144 h, read-out: fatality rate on Plutella xylostella
How it was run: as §1

Cc1cc(C2=NOC(c3cc(Cl)c(F)c(Cl)c3)(C(F)(F)F)C2)ccc1C(=O)NCCc1cnccc1C(F)(F)F (stereo not drawn) [Compound 17]
> 80%: pest or weed control at 1 ppm [1] | pest or weed control at 10 ppm [1] | pest or weed control at 25 ppm [1] | pest or weed control at 0.1 ppm (Cnaphalocrocis medinalis) | pest or weed control at 1 ppm (Cnaphalocrocis medinalis) | pest or weed control at 10 ppm (Cnaphalocrocis medinalis) | pest or weed control at 0.1 ppm (Pieris rapae) | pest or weed control at 1 ppm (Pieris rapae) | pest or weed control at 10 ppm (Pieris rapae) | pest or weed control at 1 ppm (Tetranychus cinnabarinus) | pest or weed control at 10 ppm (Tetranychus cinnabarinus) | pest or weed control at 25 ppm (Tetranychus cinnabarinus) | pest or weed control at 0.1 ppm (Chilo suppressalis) | pest or weed control at 1 ppm (Chilo suppressalis) | pest or weed control at 10 ppm (Chilo suppressalis) | pest or weed control at 0.1 ppm (Spodoptera litura) | pest or weed control at 1 ppm (Spodoptera litura) | pest or weed control at 10 ppm (Spodoptera litura) | pest or weed control at 0.1 ppm (Mythimna separata) | pest or weed control at 1 ppm (Mythimna separata) | pest or weed control at 10 ppm (Mythimna separata) | pest or weed control at 0.1 ppm (Plutella xylostella) | pest or weed control at 1 ppm (Plutella xylostella) | pest or weed control at 10 ppm (Plutella xylostella)
